Measured values taken from the NIST ThermoML archive (doi:10.1021/je300827f).

Assay: xn = mol fraction of the nth substance listed
Settings: 101 kPa, Liquid; for viscosity: Capillary tube (Ostwald / Ubbelohde) method; for mass density: Vibrating tube method

CCCCCC(C)O (configuration not stated) [2-heptanol] + OCCOCCO
Settings | mass density, 298.15 K [kg/m3] | mass density, 303.15 K [kg/m3] | mass density, 308.15 K [kg/m3] | mass density, 313.15 K [kg/m3] | viscosity, 298.15 K [mPa·s] | viscosity, 303.15 K [mPa·s] | viscosity, 308.15 K [mPa·s] | viscosity, 313.15 K [mPa·s]
x2 = 0 | 813.2 | 809.3 | 805 | 801.1 | 5.02 | 4.15 | 3.48 | 2.85
x2 = 0.0807 | 829.4 | 825.2 | 820.9 | 817 | 5.22 | 4.45 | 3.98 | 3.04
x2 = 0.1596 | 846.1 | 841.8 | 837.5 | 833.5 | 5.27 | 4.66 | 4.23 | 3.21
x2 = 0.2397 | 864.1 | 859.8 | 855.3 | 851.2 | 5.38 | 4.89 | 4.39 | 3.42
x2 = 0.3501 | 890.9 | 886.5 | 881.9 | 877.7 | 5.94 | 5.44 | 4.7 | 3.87
x2 = 0.4398 | 914.4 | 910.1 | 905.3 | 901.2 | 6.95 | 6.21 | 5.2 | 4.45
x2 = 0.5602 | 948.9 | 944.5 | 939.8 | 935.5 | 9.32 | 7.87 | 6.43 | 5.64
x2 = 0.6501 | 977.1 | 972.8 | 968.2 | 963.9 | 11.89 | 9.69 | 7.84 | 6.89
x2 = 0.7402 | 1007.7 | 1003.6 | 999.1 | 994.9 | 15.13 | 12.04 | 9.71 | 8.46
x2 = 0.8501 | 1048.8 | 1044.9 | 1040.6 | 1036.6 | 19.86 | 15.65 | 12.54 | 10.82
x2 = 0.9397 | 1085.7 | 1082.1 | 1078.4 | 1074.6 | 24.15 | 19.2 | 15.27 | 13.1

CCCCC(C)O (configuration not stated) [2-hexanol] + OCCOCCO
Settings | mass density, 298.15 K [kg/m3] | mass density, 303.15 K [kg/m3] | mass density, 308.15 K [kg/m3] | mass density, 313.15 K [kg/m3] | viscosity, 298.15 K [mPa·s] | viscosity, 303.15 K [mPa·s] | viscosity, 308.15 K [mPa·s] | viscosity, 313.15 K [mPa·s]
x2 = 0 | 810.1 | 806.1 | 802.1 | 798 | 4.1 | 3.41 | 2.82 | 2.22
x2 = 0.0809 | 828.8 | 824.7 | 820.3 | 816.1 | 4.24 | 3.93 | 3.13 | 2.26
x2 = 0.1597 | 847.7 | 843.5 | 839.1 | 834.7 | 4.39 | 4.19 | 3.38 | 2.47
x2 = 0.2398 | 867.8 | 863.5 | 858.9 | 854.4 | 4.71 | 4.43 | 3.66 | 2.85
x2 = 0.3501 | 896.9 | 892.5 | 887.8 | 883.1 | 5.69 | 5.03 | 4.24 | 3.63
x2 = 0.4398 | 921.9 | 917.6 | 912.7 | 908.2 | 7.07 | 5.96 | 4.99 | 4.5
x2 = 0.5602 | 957.6 | 953.2 | 948.4 | 943.7 | 9.89 | 8 | 6.49 | 5.99
x2 = 0.6501 | 985.9 | 981.6 | 976.9 | 972.3 | 12.69 | 10.16 | 8.04 | 7.37
x2 = 0.7403 | 1015.9 | 1011.7 | 1007.2 | 1002.7 | 16.04 | 12.83 | 9.96 | 8.96
x2 = 0.8502 | 1054.8 | 1050.9 | 1046.6 | 1042.5 | 20.63 | 16.56 | 12.76 | 11.2
x2 = 0.9398 | 1088.6 | 1084.9 | 1081.1 | 1077.5 | 24.55 | 19.77 | 15.38 | 13.28

CCC(C)O (configuration not stated) [butan-2-ol] + OCCOCCO
x2 = 0
Settings | mass density [kg/m3] | viscosity [mPa·s]
298.15 K | 802.7 | 3.1
303.15 K | 798.3 | 2.6
308.15 K | 793.6 | 2.15
313.15 K | 789.1 | 1.73

OCCOCCO [diethylene glycol] + CC(C)O
Settings | mass density, 298.15 K [kg/m3] | mass density, 303.15 K [kg/m3] | mass density, 308.15 K [kg/m3] | mass density, 313.15 K [kg/m3] | viscosity, 298.15 K [mPa·s] | viscosity, 303.15 K [mPa·s] | viscosity, 308.15 K [mPa·s] | viscosity, 313.15 K [mPa·s]
x1 = 0.0808 | 814.9 | 810.2 | 805.2 | 800.5 | 2.71 | 2.54 | 2.22 | 1.9
x1 = 0.1599 | 846.9 | 841.8 | 836.5 | 831.7 | 3.59 | 3.38 | 2.89 | 2.52
x1 = 0.2398 | 877.8 | 872.4 | 867 | 862 | 4.73 | 4.35 | 3.63 | 3.25
x1 = 0.3501 | 918.3 | 912.7 | 907.3 | 902.2 | 6.67 | 5.93 | 4.83 | 4.41
x1 = 0.4399 | 949.6 | 943.9 | 938.5 | 933.4 | 8.59 | 7.44 | 6 | 5.49
x1 = 0.5596 | 988.8 | 983.3 | 978.1 | 973.1 | 11.59 | 9.8 | 7.84 | 7.09
x1 = 0.6499 | 1016.8 | 1011.5 | 1006.4 | 1001.4 | 14.2 | 11.84 | 9.47 | 8.44
x1 = 0.7396 | 1043.2 | 1038.2 | 1033.4 | 1028.8 | 17.08 | 14.1 | 11.27 | 9.89
x1 = 0.8501 | 1073.9 | 1069.5 | 1065.2 | 1061.1 | 21.04 | 17.19 | 13.7 | 11.84
x1 = 0.9402 | 1097.4 | 1093.8 | 1089.8 | 1086.2 | 24.61 | 19.94 | 15.82 | 13.58
x1 = 1 | 1112.4 | 1109.1 | 1105.6 | 1102.3 | 27.15 | 21.87 | 17.26 | 14.81
